Source: patent publication US8410310B2, “Trypsin-like serine protease inhibitors, and their preparation and use” (The Medicines Company (Leipzig) GmbH, priority 2006, dated 2013)
Several values for one entry are separate records, joined by “and”; a condition that tells them apart may be missing. Identical values can stand only once. Like-named read-outs stand apart in the source and are kept apart here.

Key:
[1] = cited from earlier work
plasmin [2] = biological target: T1, plasmin (Homo sapiens, UniProt P00747); assay: Inhibition constants against purified human serine proteases: plasmin; assay type: biochemical; parameters: purchased Calbiochem; settings: 50 mM Tris-HCl pH 8.0, 154 mM NaCl, Chromozyme PL
Text: (§1) Aprotinin and tranexamic acid were purchased from SIGMA (Schnelldorf, Germany). Human factor Xa, factor XIa, factor XIIa, thrombin, and plasma kallikrein were purchased from Enzyme Research Laboratories, and human plasmin from Chromogenix (both via Haemochrom, Essen, Germany). Various synthetic peptide chromogenic substrates used for determination of inhibition constants were obtained from Pentapharm (Basel, Switzerland), Roche (Mannheim, Germany), and Chromogenix: Chromozyme PL for plasmin, S2302 for plasma kallikrein, Pefachrome FXa for factor Xa, Chromozym XII for FXIIa, Pefachrom tPA for thrombin, and Pefachrome PCa for factor XIa. […]
(§2) Inhibition of purified human serine proteases by Compound No. 3 and aprotinin was studied using the established methods described herein in Example 3 (i.e., Stürzebecher et al., 1997). […] Steady-state velocities of substrate conversion were obtained from progress curves generated by continuous monitoring of the absorbance at 405 nm with a microplate reader (Multiskan Ascent, Thermo Electron Corporation, Dreieich, Germany). […] Inhibition constants (Ki) were calculated from non-linear fits of individual data sets to the Michaelis-Menten equation for competitive inhibitors using an enzyme kinetic analysis software (SIGMA Plot® 9.0 Enzyme Kinetics Module, SSI, San Jose, Calif.). […]

plasmin [3] = biological target: T1, plasmin; assay: Determination of inhibition constants for plasmin; assay type: biochemical; parameters: purchased Calbiochem; settings: 25° C., substrate Chromozym PL, pH 8.0; read-out: Plasmin [Ki]
Summary of the method: (§3)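 Chromogenic assays measured absorbance at 405 nm: zero-order reactions were stopped with acetic acid after 20 min, and pseudo-first-order rates were recorded kinetically at equilibrium. Ki was obtained by Dixon linear regression or by fitting to the competitive-inhibition rate equation, averaging at least two determinations.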

[4] = Terminal half-life in dogs; settings: dog, in vivo
[5] = system: thrombin generation in platelet-rich human plasma; assay: Thrombin generation assay (Technothrombin TGA); assay type: cell-based; settings: 100 to 1000 nM, intrinsic and extrinsic activation
Protocol: Venous blood was withdrawn from the antecubital vein from healthy volunteers after written informed consent in accordance with local and federal guidelines with approval of the local review board (Ethikkommission, Klinikum Charité, Sauerbruchweg 5, 10117 Berlin). The blood was mixed with 0.11 mol/L sodium citrate (1:10). For ROTEM® analysis, whole citrated blood was used within 8 h after collection. Platelet-rich plasma (PRP) was prepared from citrated blood by centrifugation at 330×g for 10 min at room temperature, platelet-poor plasma (PPP) was collected following centrifugation at 1220×g for 12 min. The PRP was then adjusted to 3×10^8 platelets per mL using the autologous PPP. PRP was maintained at room temperature for less than 4 h before analysis. The remaining PPP was subjected to a high-speed centrifugation at 40,000×g for 30 min at 4° C. to remove any particulate material and was then stored at −70° C. until use.
The impact of Compound No. 3 and aprotinin on thrombin generation was studied in PRP using the commercially available Technothrombin® TGA kit (Technoclone, Vienna, Austria). This method allows assessment of the dynamics of thrombin generation, i.e. initiation, propagation, and inactivation phases, including the contribution of platelet function to the clotting process (Hemker et al., Pathophysiol. Haemost. Thromb. 33: 4-15, 2003). PRP was spiked with test compounds at different concentrations and pre-warmed to 37° C. in a black 96-well flat-bottom plate (Nunc, Wiesbaden, Germany). Thrombin generation was then initiated by adding a mixture of activator and fluorogenic thrombin substrate. […] Starting immediately after addition of reagents, fluorescence was recorded every 60 s for 120 min using the BMG POLARstar microplate reader (BMG Labtech, Offenburg, Germany) set at 390 nm excitation and 460 nm emission maintaining a temperature of 37° C. […] A typical thrombin generation curve is generated by plotting the first derivative (dF/dt) of the original fluorescence versus time curve and comparing it to a standard run containing known amounts of thrombin in buffer. […]

plasma kallikrein = plasma kallikrein (Homo sapiens, UniProt P03952); assay: Determination of inhibition constants for PK; assay type: biochemical; parameters: purchased Enzyme Research Lab. / Enzyme Research Laboratories; settings: 25° C., substrate S2302, pH 8.0; read-out: PK [Ki]
Summary of the method: as §3

[6] = Terminal half-life in rats; settings: rat, in vivo
Human factor XIa = biological target: T2, Human factor XIa (Homo sapiens, UniProt P03951); assay: Inhibition constants against purified human serine proteases: FXIa; assay type: biochemical
T2 construct: Human factor Xa, factor XIa, factor XIIa, thrombin, and plasma kallikrein were purchased; purchased Enzyme Research Laboratories (via Haemochrom, Essen)
Text: as §1, §2

T1 sequence (P00747 581-810 limits assumed): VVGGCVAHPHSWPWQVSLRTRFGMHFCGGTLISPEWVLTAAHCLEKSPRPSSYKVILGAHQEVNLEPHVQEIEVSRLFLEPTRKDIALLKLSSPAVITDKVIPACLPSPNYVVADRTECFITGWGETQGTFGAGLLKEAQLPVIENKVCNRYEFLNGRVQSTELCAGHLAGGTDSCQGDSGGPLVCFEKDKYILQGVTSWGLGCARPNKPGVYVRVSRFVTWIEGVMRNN
T1 sequence (P00747 97-580 partner limits assumed): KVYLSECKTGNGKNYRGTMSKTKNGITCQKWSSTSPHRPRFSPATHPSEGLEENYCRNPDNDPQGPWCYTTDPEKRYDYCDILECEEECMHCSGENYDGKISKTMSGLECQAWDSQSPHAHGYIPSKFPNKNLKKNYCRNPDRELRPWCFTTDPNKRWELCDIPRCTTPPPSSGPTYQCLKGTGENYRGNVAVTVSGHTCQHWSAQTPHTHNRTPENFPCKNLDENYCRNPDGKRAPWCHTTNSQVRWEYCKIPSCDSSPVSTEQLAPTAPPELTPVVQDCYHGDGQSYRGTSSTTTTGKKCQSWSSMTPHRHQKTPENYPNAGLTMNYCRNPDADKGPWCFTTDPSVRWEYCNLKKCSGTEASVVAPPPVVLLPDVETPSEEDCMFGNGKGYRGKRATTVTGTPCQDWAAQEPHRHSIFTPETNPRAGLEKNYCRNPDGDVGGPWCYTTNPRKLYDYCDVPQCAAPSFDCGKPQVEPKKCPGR
T2 sequence (P03951 388-625 limits assumed): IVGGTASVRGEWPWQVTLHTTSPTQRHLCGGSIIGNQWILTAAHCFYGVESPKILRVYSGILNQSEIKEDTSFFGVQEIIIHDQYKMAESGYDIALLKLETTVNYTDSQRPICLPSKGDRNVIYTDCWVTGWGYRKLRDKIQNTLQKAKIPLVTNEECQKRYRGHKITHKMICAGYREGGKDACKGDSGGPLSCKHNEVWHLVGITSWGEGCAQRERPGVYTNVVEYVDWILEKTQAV
T2 sequence (P03951 19-387 partner limits assumed): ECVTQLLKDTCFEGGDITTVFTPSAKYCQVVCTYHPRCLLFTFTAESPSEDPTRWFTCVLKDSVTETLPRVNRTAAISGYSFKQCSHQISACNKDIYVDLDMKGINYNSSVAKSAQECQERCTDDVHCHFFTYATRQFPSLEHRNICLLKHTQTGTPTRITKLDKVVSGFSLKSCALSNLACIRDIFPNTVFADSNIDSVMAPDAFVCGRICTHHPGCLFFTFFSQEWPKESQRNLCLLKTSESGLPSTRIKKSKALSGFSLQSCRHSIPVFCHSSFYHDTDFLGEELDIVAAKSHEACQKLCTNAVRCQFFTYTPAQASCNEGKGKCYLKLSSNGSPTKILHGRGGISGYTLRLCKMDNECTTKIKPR
plasma kallikrein, sequence (P03952 391-638 limits assumed): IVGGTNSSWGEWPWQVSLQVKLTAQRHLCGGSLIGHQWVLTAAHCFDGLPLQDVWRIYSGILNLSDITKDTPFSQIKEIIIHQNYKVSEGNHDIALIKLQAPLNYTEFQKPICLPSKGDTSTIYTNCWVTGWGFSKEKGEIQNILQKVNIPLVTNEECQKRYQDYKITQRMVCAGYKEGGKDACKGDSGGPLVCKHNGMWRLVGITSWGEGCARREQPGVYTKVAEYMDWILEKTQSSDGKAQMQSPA
plasma kallikrein, sequence (P03952 20-390 partner limits assumed): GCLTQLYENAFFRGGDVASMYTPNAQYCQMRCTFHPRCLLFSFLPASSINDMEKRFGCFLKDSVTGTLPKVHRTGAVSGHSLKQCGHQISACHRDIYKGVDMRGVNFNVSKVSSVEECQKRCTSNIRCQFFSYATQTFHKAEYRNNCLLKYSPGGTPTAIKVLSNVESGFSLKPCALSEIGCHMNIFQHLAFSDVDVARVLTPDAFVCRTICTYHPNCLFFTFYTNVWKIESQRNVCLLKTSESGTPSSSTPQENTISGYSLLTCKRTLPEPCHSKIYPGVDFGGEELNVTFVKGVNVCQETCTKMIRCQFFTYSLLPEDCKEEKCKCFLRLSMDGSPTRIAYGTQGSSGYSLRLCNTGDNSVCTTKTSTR

| Molecule | risk of myocardial infarction and apoplectic stroke ([1]; by comparison with the control groups) | number of cases of kidney damage, making dialysis necessary ([1]; comparison with ε-aminocaproic acid or tranexamic acid (Mangano et al., 2006)) | risk of an anaphylactic shock ([1]; first administration) [%] | risk of an anaphylactic shock ([1]; repeated administration within 200 days) | Ki (plasmin [2]) | Ki (plasmin [3]) [nM] | half-life [4] [min] | endogenous thrombin potential [5] | onset of thrombin generation [5] | peak thrombin level [5] | Ki (plasma kallikrein) [nM] | half-life [6] [min] | Ki (Human factor XIa; 50 mM Tris-HCl pH 8.0, 154 mM NaCl, Pefachrome PCa) [nM] | stronger inhibition of FXIa than aprotinin (Human factor XIa; versus aprotinin) [fold] |
| --- | --- | --- | --- | --- | --- | --- | --- | --- | --- | --- | --- | --- | --- | --- |
| aprotinin | increased | doubling | < 0.1 | 4-5% |  |  |  |  |  |  |  |  |  |  |
| N=C(N)c1ccc(CNC(=O)[C@H](Cc2cccc(CN)c2)NC(=O)[C@@H](CCCc2ccccc2)NS(=O)(=O)Cc2cccc(C(=O)O)c2)cc1 [compound 3, 3-HOOC-Bzls-d-Ppg-Phe(3-Ame)-4-Amba×2 acetate] |  |  |  |  | 2.3 nM and 2.2 nM | < 10 | 20 | no impact | concentration-dependent delay | reduction | < 10 | 20 | 18 ± 1 | 100 |
